Reference: patent US8497278B2, “Imidazo[1,2-a]pyridine compounds” (priority 2008, dated 2013)

test system: central benzodiazepine receptors; test: Central benzodiazepine receptor binding (test of Speth et al.); conditions: 1000 nM of the compound
Description: Compounds of the invention were assessed for their binding to the benzodiazepine receptor by the test of Speth et al. [Life Sci. 24, 351 (1979)] for central benzodiazepine receptors and LeFur et al. [Life Sci. 33, 449 (1983)] for peripheral receptors. The compounds were tested first at 1.0E-09, 1.0E-07 and 1.0E-05 M in single determination. […] The specific ligand binding to the receptor is defined as the difference between the total binding and the nonspecific binding determined in the presence of an excess of unlabelled ligand. In each experiment, the respective reference compound was tested concurrently with the test compounds in order to assess the assay suitability. It was tested at several concentrations (for IC50 value determination), and the data were compared with historical values. The assay was rendered valid if suitability criteria were met.
BZD central binding data for the compounds is provided in Table 3, wherein is provided the percent inhibition of central BZD in the presence of 1000 nM of the compound.

| Compound | % Inhibition at 1000 nM for CBZD |
| --- | --- |
| Cc1ccc(-c2nc3ccc(C)cn3c2CN2C(=O)CN(C)C2=O)cc1 [Compound 102, 1-methyl-3-((6-methyl-2-p-tolylH-imidazo[1,2-a]pyridin-3-yl)methyl)imidazolidine-2,4-dione] | + (percentage of inhibition of central BZD site binding is greater than 50% but less than 80% in the presence of 1000 nM of the compound) |
| O=c1ccccn1Cc1c(-c2ccc(Cl)cc2)nc2ccc(Cl)cn12 [Compound 104, 1-((6-chloro-2-(4-chlorophenyl)H-imidazo[1,2-a]pyridin-3-yl)methyl)pyridin-2(1H)-one] | ++ (percentage of inhibition of central BZD site binding is greater than 80% in the presence of 1000 nM of the compound) |
| Cc1cccc(=O)n1Cc1c(-c2ccc(Cl)cc2)nc2ccc(Cl)cn12 [Compound 107, 1-((6-chloro-2-(4-chlorophenyl)H-imidazo[1,2-a]pyridin-3-yl)methyl)-6-methylpyridin-2(1H)-one] | ++ (percentage of inhibition of central BZD site binding is greater than 80% in the presence of 1000 nM of the compound) |
| O=c1ccc(Cl)cn1Cc1c(-c2ccc(Cl)cc2)nc2ccc(Cl)cn12 [Compound 108, 5-chloro-1-((6-chloro-2-(4-chlorophenyl)H-imidazo[1,2-a]pyridin-3-yl)methyl)pyridin-2(1H)-one] | ++ (percentage of inhibition of central BZD site binding is greater than 80% in the presence of 1000 nM of the compound) |
| Cc1cccn(Cc2c(-c3ccc(Cl)cc3)nc3ccc(Cl)cn23)c1=O [Compound 109, 1-((6-chloro-2-(4-chlorophenyl)H-imidazo[1,2-a]pyridin-3-yl)methyl)-3-methylpyridin-2(1H)-one] | ++ (percentage of inhibition of central BZD site binding is greater than 80% in the presence of 1000 nM of the compound) |
| O=C1OCCN1Cc1c(-c2ccc(Cl)cc2)nc2ccc(Cl)cn12 [Compound 111, 3-((6-chloro-2-(4-chlorophenyl)H-imidazo[1,2-a]pyridin-3-yl)methyl)oxazolidin-2-one] | ++ (percentage of inhibition of central BZD site binding is greater than 80% in the presence of 1000 nM of the compound) |
| O=C1CCCN1Cc1c(-c2ccc(Cl)cc2)nc2ccc(Cl)cn12 [Compound 112, 1-((6-chloro-2-(4-chlorophenyl)H-imidazo[1,2-a]pyridin-3-yl)methyl)pyrrolidin-2-one] | ++ (percentage of inhibition of central BZD site binding is greater than 80% in the presence of 1000 nM of the compound) |
| O=C1CCN1Cc1c(-c2ccc(Cl)cc2)nc2ccc(Cl)cn12 [Compound 113, 1-[6-Chloro-2-(4-chloro-phenyl)-imidazo[1,2-a]pyridin-3-ylmethyl]-azetidin-2-one] | ++ (percentage of inhibition of central BZD site binding is greater than 80% in the presence of 1000 nM of the compound) |
| Cc1ccc(-c2nc3c(Cl)cc(Cl)cn3c2CN2CCCC2=O)cc1 [Compound 116, 1-(6,8-Dichloro-2-p-tolyl-imidazo[1,2-a]pyridin-3-ylmethyl)-pyrrolidin-2-one] | ++ (percentage of inhibition of central BZD site binding is greater than 80% in the presence of 1000 nM of the compound) |
| Cc1ccc(-c2nc3c(Cl)cc(Cl)cn3c2Cn2nc(C)ccc2=O)cc1 [Compound 117, 2-(6,8-Dichloro-2-p-tolyl-imidazo[1,2-a]pyridin-3-ylmethyl)-6-methyl-2H-pyridazin-3-one] | ++ (percentage of inhibition of central BZD site binding is greater than 80% in the presence of 1000 nM of the compound) |
| O=c1ccccn1Cc1c(-c2ccc(Cl)cc2)nc2ccc(F)cn12 [Compound 122, 1-((2-(4-chlorophenyl)-6-fluoroimidazo[1,2-a]pyridin-3-yl)methyl)pyridin-2(1H)-one] | ++ (percentage of inhibition of central BZD site binding is greater than 80% in the presence of 1000 nM of the compound) |
| O=C1COc2ccccc2N1Cc1c(-c2ccc(Cl)cc2)nc2ccccn12 [Compound 124, 4-((2-(4-chlorophenyl)imidazo[1,2-a]pyridin-3-yl)methyl)-2H-benzo[b][1,4]oxazin-3(4H)-one] | ++ (percentage of inhibition of central BZD site binding is greater than 80% in the presence of 1000 nM of the compound) |
| CCOC(=O)c1cn(Cc2c(-c3ccc(Cl)cc3)nc3ccccn23)c(=O)[nH]c1=O [Compound 126, Ethyl 1-((2-(4-chlorophenyl)imidazo[1,2-a]pyridin-3-yl)methyl)-2,4-dioxo-1,2,3,4-tetrahydropyrimidine-5-carboxylate] | − (percentage of inhibition of central BZD site binding is less than 50% in the presence of 1000 nM of the compound) |
| CSc1nsc(=S)n1Cc1c(-c2ccc(C)cc2)nc2ccc(C)cn12 [Compound 129, 3-Methylsulfanyl-4-(6-methyl-2-p-tolyl-imidazo[1,2-a]pyridin-3-ylmethyl)-4H-[1,2,4]thiadiazole-5-thione] | ++ (percentage of inhibition of central BZD site binding is greater than 80% in the presence of 1000 nM of the compound) |
| Cc1ccc(-c2nc3ccc(C)cn3c2Cn2c(C)c(C)sc2=S)cc1 [Compound 130, 4,5-Dimethyl-3-(6-methyl-2-p-tolyl-imidazo[1,2-a]pyridin-3-ylmethyl)-3H-thiazole-2-thione] | ++ (percentage of inhibition of central BZD site binding is greater than 80% in the presence of 1000 nM of the compound) |
| Cc1ccc(-c2nc3ccc(C)cn3c2Cn2ccsc2=S)cc1 [Compound 131, 3-((6-Methyl-2-p-tolylH-imidazo[1,2-a]pyridin-3-yl)methyl)thiazole-2(3H)-thione] | ++ (percentage of inhibition of central BZD site binding is greater than 80% in the presence of 1000 nM of the compound) |
| CCNc1ccn(Cc2c(-c3ccc(Cl)cc3)nc3ccccn23)c(=O)n1 [Compound 132, 1-((2-(4-chlorophenyl)imidazo[1,2-a]pyridin-3-yl)methyl)-4-(ethylamino)pyrimidin-2(1H)-one] | ++ (percentage of inhibition of central BZD site binding is greater than 80% in the presence of 1000 nM of the compound) |
| CN(C)CCNc1ccn(Cc2c(-c3ccc(Cl)cc3)nc3ccccn23)c(=O)n1 [Compound 134, 1-((2-(4-chlorophenyl)imidazo[1,2-a]pyridin-3-yl)methyl)-4-(2-(dimethylamino)ethylamino)pyrimidin-2(1H)-one] | ++ (percentage of inhibition of central BZD site binding is greater than 80% in the presence of 1000 nM of the compound) |
| Cc1ccc(-c2nc3ccc(C)cn3c2CNc2ccccn2)cc1 [Compound 140, N-((6-methyl-2-p-tolylH-imidazo[1,2-a]pyridin-3-yl)methyl)pyridin-2-amine] | ++ (percentage of inhibition of central BZD site binding is greater than 80% in the presence of 1000 nM of the compound) |
